Source: PMC7156458, “Synthetic biology based construction of biological activity-related library of fungal decalin-containing diterpenoid pyrones” (Nature Communications, 2020)

Target: Aβ42 (Homo sapiens, UniProt P05067)
Assay: Th-T (thioflavin-T) assay of Aβ42 aggregation
Format: biochemical
Details: for Th-T fluorescence of Aβ42 with compound, mean of three wells (Fig. 7a source data): concentration 50, unit not given

Aβ42, sequence (P05067 672-713): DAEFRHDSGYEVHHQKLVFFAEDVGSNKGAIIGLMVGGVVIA

SMILES: C=C1CCC2C(C)(CCC=C(C)C)C(O)CCC2(C)C1Cc1c(OC)oc(C)c(C(=O)OC)c1=O (stereo not drawn) [Compound 14]
- Th-T fluorescence of Aβ42 with compound, mean of three wells (Fig. 7a source data) (time-course reading M143): 0.7264
- Th-T fluorescence of Aβ42 with compound, mean of three wells (Fig. 7a source data) (time-course reading M144): 0.7091
- Th-T fluorescence of Aβ42 with compound, mean of three wells (Fig. 7a source data) (time-course reading M145): 0.7134
- Th-T fluorescence of Aβ42 (sheet Fig. 7a), mean of three wells (head suffix _10 (concentration 10), reading M63): 2.709
- Th-T fluorescence of Aβ42 (sheet Fig. 7a), mean of three wells (head suffix _10 (concentration 10), reading M64): 2.685
- Th-T fluorescence of Aβ42 (sheet Fig. 7a), mean of three wells (head suffix _10 (concentration 10), reading M65): 2.69
- Th-T fluorescence of Aβ42 (sheet Fig. 7a), mean of three wells (head suffix _10 (concentration 10), reading M66): 2.693
- Th-T fluorescence of Aβ42 (sheet Fig. 7a), mean of three wells (head suffix _10 (concentration 10), reading M67): 2.707
- Th-T fluorescence of Aβ42 (sheet Fig. 7a), mean of three wells (head suffix _10 (concentration 10), reading M68): 2.71
- Th-T fluorescence of Aβ42 (sheet Fig. 7a), mean of three wells (head suffix _10 (concentration 10), reading M69): 2.6808
- Th-T fluorescence of Aβ42 (sheet Fig. 7a), mean of three wells (head suffix _10 (concentration 10), reading M70): 2.69
- Th-T fluorescence of Aβ42 (sheet Fig. 7a), mean of three wells (head suffix _10 (concentration 10), reading M71): 2.719
- Th-T fluorescence of Aβ42 (sheet Fig. 7a), mean of three wells (head suffix _10 (concentration 10), reading M72): 2.755
- Th-T fluorescence of Aβ42 (sheet Fig. 7a), mean of three wells (head suffix _10 (concentration 10), reading M73): 2.763
- Th-T fluorescence of Aβ42 (sheet Fig. 7a), mean of three wells (head suffix _10 (concentration 10), reading M74): 2.748
- Th-T fluorescence of Aβ42 (sheet Fig. 7a), mean of three wells (head suffix _10 (concentration 10), reading M75): 2.779
- Th-T fluorescence of Aβ42 (sheet Fig. 7a), mean of three wells (head suffix _10 (concentration 10), reading M76): 2.777
- Th-T fluorescence of Aβ42 (sheet Fig. 7a), mean of three wells (head suffix _10 (concentration 10), reading M77): 2.827
- Th-T fluorescence of Aβ42 (sheet Fig. 7a), mean of three wells (head suffix _10 (concentration 10), reading M78): 2.836
- Th-T fluorescence of Aβ42 (sheet Fig. 7a), mean of three wells (head suffix _10 (concentration 10), reading M79): 2.796
- Th-T fluorescence of Aβ42 (sheet Fig. 7a), mean of three wells (head suffix _10 (concentration 10), reading M80): 2.789
- Th-T fluorescence of Aβ42 (sheet Fig. 7a), mean of three wells (head suffix _10 (concentration 10), reading M81): 2.809
- Th-T fluorescence of Aβ42 (sheet Fig. 7a), mean of three wells (head suffix _10 (concentration 10), reading M82): 2.8409
- Th-T fluorescence of Aβ42 (sheet Fig. 7a), mean of three wells (head suffix _10 (concentration 10), reading M83): 2.8356
- Th-T fluorescence of Aβ42 (sheet Fig. 7a), mean of three wells (head suffix _10 (concentration 10), reading M84): 2.801
- Th-T fluorescence of Aβ42 (sheet Fig. 7a), mean of three wells (head suffix _20 (concentration 20), reading M63): 2.081
- Th-T fluorescence of Aβ42 (sheet Fig. 7a), mean of three wells (head suffix _20 (concentration 20), reading M64): 2.033
- Th-T fluorescence of Aβ42 (sheet Fig. 7a), mean of three wells (head suffix _20 (concentration 20), reading M65): 2.056
- Th-T fluorescence of Aβ42 (sheet Fig. 7a), mean of three wells (head suffix _20 (concentration 20), reading M66): 1.992
- Th-T fluorescence of Aβ42 (sheet Fig. 7a), mean of three wells (head suffix _20 (concentration 20), reading M67): 2.022
- Th-T fluorescence of Aβ42 (sheet Fig. 7a), mean of three wells (head suffix _20 (concentration 20), reading M68): 2.054
- Th-T fluorescence of Aβ42 (sheet Fig. 7a), mean of three wells (head suffix _20 (concentration 20), reading M69): 2.0412
- Th-T fluorescence of Aβ42 (sheet Fig. 7a), mean of three wells (head suffix _20 (concentration 20), reading M70): 2.012
- Th-T fluorescence of Aβ42 (sheet Fig. 7a), mean of three wells (head suffix _20 (concentration 20), reading M71): 1.97
- Th-T fluorescence of Aβ42 (sheet Fig. 7a), mean of three wells (head suffix _20 (concentration 20), reading M72): 1.988
- Th-T fluorescence of Aβ42 (sheet Fig. 7a), mean of three wells (head suffix _20 (concentration 20), reading M73): 1.972
- Th-T fluorescence of Aβ42 (sheet Fig. 7a), mean of three wells (head suffix _20 (concentration 20), reading M74): 1.9541
- Th-T fluorescence of Aβ42 (sheet Fig. 7a), mean of three wells (head suffix _20 (concentration 20), reading M75): 1.951
- Th-T fluorescence of Aβ42 (sheet Fig. 7a), mean of three wells (head suffix _20 (concentration 20), reading M76): 1.9741
- Th-T fluorescence of Aβ42 (sheet Fig. 7a), mean of three wells (head suffix _20 (concentration 20), reading M77): 1.953
- Th-T fluorescence of Aβ42 (sheet Fig. 7a), mean of three wells (head suffix _20 (concentration 20), reading M78): 1.933
- Th-T fluorescence of Aβ42 (sheet Fig. 7a), mean of three wells (head suffix _20 (concentration 20), reading M79): 1.92
- Th-T fluorescence of Aβ42 (sheet Fig. 7a), mean of three wells (head suffix _20 (concentration 20), reading M80): 1.931
- Th-T fluorescence of Aβ42 (sheet Fig. 7a), mean of three wells (head suffix _20 (concentration 20), reading M81): 1.911
- Th-T fluorescence of Aβ42 (sheet Fig. 7a), mean of three wells (head suffix _20 (concentration 20), reading M82): 1.915
- Th-T fluorescence of Aβ42 (sheet Fig. 7a), mean of three wells (head suffix _20 (concentration 20), reading M83): 1.888
- Th-T fluorescence of Aβ42 (sheet Fig. 7a), mean of three wells (head suffix _20 (concentration 20), reading M84): 1.889
- Th-T fluorescence of Aβ42 (sheet Fig. 7a), mean of three wells (head suffix _50 (concentration 50), reading M63): 3.83
- Th-T fluorescence of Aβ42 (sheet Fig. 7a), mean of three wells (head suffix _50 (concentration 50), reading M64): 3.705
- Th-T fluorescence of Aβ42 (sheet Fig. 7a), mean of three wells (head suffix _50 (concentration 50), reading M65): 3.586
- Th-T fluorescence of Aβ42 (sheet Fig. 7a), mean of three wells (head suffix _50 (concentration 50), reading M66): 3.506
- Th-T fluorescence of Aβ42 (sheet Fig. 7a), mean of three wells (head suffix _50 (concentration 50), reading M67): 3.421
- Th-T fluorescence of Aβ42 (sheet Fig. 7a), mean of three wells (head suffix _50 (concentration 50), reading M68): 3.307
- Th-T fluorescence of Aβ42 (sheet Fig. 7a), mean of three wells (head suffix _50 (concentration 50), reading M69): 3.193
- Th-T fluorescence of Aβ42 (sheet Fig. 7a), mean of three wells (head suffix _50 (concentration 50), reading M70): 3.0995
- Th-T fluorescence of Aβ42 (sheet Fig. 7a), mean of three wells (head suffix _50 (concentration 50), reading M71): 3.0146
- Th-T fluorescence of Aβ42 (sheet Fig. 7a), mean of three wells (head suffix _50 (concentration 50), reading M72): 2.931
